In PMC8508980, “Design, Synthesis and Anticancer Profile of New 4-(1H-benzo[d]imidazol-1-yl)pyrimidin-2-amine-Linked Sulfonamide Derivatives with V600EBRAF Inhibitory Effect” (International Journal of Molecular Sciences, 2021):

Experiments:
PC-3 = experiment: NCI 60 cell line screen; assay type: cell-based, human; settings: for activity at 10 µM: Homo sapiens, PC-3, Prostate Cancer, read-out: Percent growth
Protocol: (§1) Anticancer profiling over a panel of 60 cancer cell lines was carried out at the National Cancer Institute (NCI), Bethesda, Maryland, USA, https://dtp.cancer.gov/discovery_development/nci-60/methodology.htm (Last visit 22 September 2021), using the standard procedure (detailed procedure is located in the Supplementary Information page 50 s).
(§2) NCI standard procedure for 60 cell lines assay
(§3) The human tumor cell lines of the cancer screening panel are grown in RPMI 1640 mediu m containing 5% fetal bovine serum and 2 mM L-glutamine. For a typical screening experiment, cells are inoculated into 96 well microtiter plates in 100 μL at plating densities ranging from 5,000 to 40,000 cells/well depending on the doubling time of individual cell lines. After cell inoculation, the microtiter plates are incubated at 37° C, 5 % CO2, 95 % air and 100 % relative humidity for 24 h prior to addition of experimental drugs.
(§4) After 24 h, two plates of each cell line are fixed in situ with TCA, to represent a measurement of the cell population for each cell line at the time of drug addition (Tz). Experimental drugs are solubilized in dimethyl sulfoxide at 400-fold the desired final maximum test concentration (10 µM) and stored frozen prior to use. At the time of drug addition, an aliquot of frozen concentrate is thawed and diluted to twice the desired final maximum test concentration with co mp lete medium containing 50 μg/ml gentamicin. Additional four, 10-fold or ½ log serial dilutions are made to provide a total of five drug concentrations plus control. Aliquots of 100 μl of these different drug dilutions are added to the appropriate microtiter wells already containing 100 μl of medium, resulting in the required final drug concentrations.
(§5) Following drug addition, the plates are incubated for an additional 48 h at 37°C, 5 % CO2, 95 % air, and 100 % relative humidity. For adherent cells, the assay is terminated by the addition of cold TCA. Cells are fixed in situ by the gentle addition of 50 μl of cold 50 % (w/v) TCA (final concentration, 10 % TCA) and incubated for 60 minutes at 4°C. The supernatant is discarded, and the plates are washed five times with tap water and air dried. Sulforhodamine B (SRB) solution (100 μl) at 0.4 % (w/v) in 1 % acetic acid is added to each well, and plates are incubated for 10 minutes at room temperature. After staining, unbound dye is removed by washing five times with 1 % acetic acid and the plates are air dried. Bound stain is subsequently solubilized with 10 mM trizma base, and the absorbance is read on an automated plate reader at a wavelength of 515 nm. For suspension cells, the methodology is the same except that the assay is terminated by fixing settled cells at the bottom of the wells by g ently adding 50 μl of 80 % TCA (final concentration, 16 % TCA). Using the seven absorbance measurements [time zero, (Tz), control growth, (C), and test growth in the presence of drug at the five concentration levels (Ti)], the percentage growth is calculated at each of the drug concentrations levels. Percentage growth inhibition is calculated as:
(§6) [(Ti-Tz)/(C-Tz)] x 100 for concentrations for which Ti>/=Tz
(§7) [(Ti-Tz)/Tz] x 100 for concentrations for which Ti<Tz.
(§8) Three dose response parameters are calculated for each experimental agent. Growth inhibition of […]
(§9) resulting in a 50% reduction in the net protein increase (as measured by SRB staining) in control cells during the drug incubation. The drug concentration resulting in total growth inhibition […]
(§10) (TGI) is calculated from Ti = Tz.

NCI-H522 = experiment: NCI 60 cell line screen; assay type: cell-based, human; settings: Homo sapiens; NCI-H522, Non-Small Cell Lung Cancer; read-out: Percent growth
Protocol: as §1, §2, §3, §4, §5, §6, §7, §8, §9, §10

SK-MEL-5 = experiment: NCI 60 cell line screen; assay type: cell-based, human; settings: for activity at 10 µM: Homo sapiens, SK-MEL-5, Melanoma, read-out: Percent growth; for percent inhibition: SK-MEL-5, NCI-60 heat map analysis
Protocol: as §1, §2, §3, §4, §5, §6, §7, §8, §9, §10

OVCAR-4 = experiment: NCI 60 cell line screen; assay type: cell-based, human; settings: for activity at 10 µM: Homo sapiens, OVCAR-4, Ovarian Cancer, read-out: Percent growth
Protocol: as §1, §2, §3, §4, §5, §6, §7, §8, §9, §10

RPMI-8226 = experiment: NCI 60 cell line screen; assay type: cell-based, human; settings: for activity at 10 µM: Homo sapiens, RPMI-8226, Leukemia, read-out: Percent growth
Protocol: as §1, §2, §3, §4, §5, §6, §7, §8, §9, §10

NCI/ADR-RES = experiment: NCI 60 cell line screen; assay type: cell-based, human; settings: for activity at 10 µM: Homo sapiens, Ovarian Cancer, read-out: Percent growth
Protocol: as §1, §2, §3, §4, §5, §6, §7, §8, §9, §10

SK-MEL-2 = experiment: NCI 60 cell line screen; assay type: cell-based; settings: Homo sapiens; SK-MEL-2, Melanoma; read-out: Percent growth
In short: (§11)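 Cells seeded, incubated 24 h, then a time-zero plate fixed with TCA. Drug added at five concentrations up to 10 µM for 48 h at 37 °C. Cells fixed with TCA (16% for suspension lines), stained with SRB, absorbance read at 515 nm.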

786-0 = experiment: NCI 60 cell line screen; assay type: cell-based; settings: Homo sapiens; 786-0, Renal Cancer; read-out: Percent growth
In short: as §11

UACC-62 = experiment: NCI 60 cell line screen; assay type: cell-based; settings: Homo sapiens; UACC-62, Melanoma; read-out: Percent growth
In short: as §11

SNB-19 = experiment: NCI 60 cell line screen; assay type: cell-based; settings: Homo sapiens; SNB-19, CNS-Cancer; read-out: Percent growth
In short: as §11

SK-MEL-28 = experiment: NCI 60 cell line screen; assay type: cell-based; settings: Homo sapiens; SK-MEL-28, Melanoma; read-out: Percent growth
In short: as §11

ACHN = experiment: NCI 60 cell line screen; assay type: cell-based; settings: Homo sapiens, Renal Cancer, read-out: Percent growth
In short: as §11

SW-620 = experiment: NCI 60 cell line screen; assay type: cell-based; settings: Homo sapiens; SW-620, Colon Cancer; read-out: Percent growth
In short: as §11

HOP-62 = experiment: NCI 60 cell line screen; assay type: cell-based; settings: Homo sapiens; HOP-62, Non-Small Cell Lung Cancer; read-out: Percent growth
In short: as §11

HS 578T = experiment: NCI 60 cell line screen; assay type: cell-based; settings: Homo sapiens, Breast Cancer, read-out: Percent growth
In short: as §11

TK-10 = experiment: NCI 60 cell line screen; assay type: cell-based; settings: Homo sapiens; TK-10, Renal Cancer; read-out: Percent growth
In short: as §11

CRAF = CRAF (Homo sapiens, UniProt P04049); experiment: Reaction Biology kinase HotSpot enzyme assay; assay type: biochemical; settings: 1 µM ATP; mean ± S.D. of two separate experiments; read-out: IC50 CRAF
Protocol: Reaction Biology Corp. Kinase HotSpotTM service http://www.reactionbiology.com was used for screening of compounds IC50 Proﬁler Express for IC50 measurement. Assay protocol: In a ﬁnal reaction volume of 25 μL, kinase (5–10 mU) is incubated with 25 mM Tris pH 7.5, 0.02 mM EGTA, 0.66 mg/mL myelin basic protein, 10 mM magnesium acetate and [γ33P-ATP] (speciﬁc activity approx. 500 cpm/pmol, concentration as required). The reaction is initiated by the addition of the Mg-ATP mix. After incubation for 40 min at room temperature, the reaction is stopped by the addition of 5 μL of a 3% phosphoric acid solution. 10 μL of the reaction is then spotted onto a P30 ﬁltermat, and washed three times for 5 min in 75 mM phosphoric acid and once in methanol prior to drying and scintillation counting.

Sequence of CRAF (P04049 whole entry): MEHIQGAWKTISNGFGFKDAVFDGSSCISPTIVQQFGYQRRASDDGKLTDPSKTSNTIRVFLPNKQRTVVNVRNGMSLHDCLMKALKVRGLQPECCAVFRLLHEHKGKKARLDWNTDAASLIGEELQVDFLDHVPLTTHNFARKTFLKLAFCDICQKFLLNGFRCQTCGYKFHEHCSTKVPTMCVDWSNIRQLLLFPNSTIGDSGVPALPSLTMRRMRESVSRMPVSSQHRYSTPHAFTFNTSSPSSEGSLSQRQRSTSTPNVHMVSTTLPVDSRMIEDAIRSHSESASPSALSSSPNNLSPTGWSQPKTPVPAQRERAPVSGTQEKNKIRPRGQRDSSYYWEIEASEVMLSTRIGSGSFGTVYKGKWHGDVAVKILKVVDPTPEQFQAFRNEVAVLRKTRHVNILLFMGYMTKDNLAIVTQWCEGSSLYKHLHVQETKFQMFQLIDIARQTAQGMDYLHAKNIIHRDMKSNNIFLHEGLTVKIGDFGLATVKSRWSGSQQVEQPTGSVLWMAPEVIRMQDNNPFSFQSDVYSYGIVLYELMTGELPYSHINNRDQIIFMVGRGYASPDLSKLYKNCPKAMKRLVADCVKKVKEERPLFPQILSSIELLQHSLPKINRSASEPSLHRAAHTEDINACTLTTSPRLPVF

| SMILES | activity at 10 µM (PC-3) [%] | activity at 10 µM (NCI-H522) [%] | activity at 10 µM (SK-MEL-5) [%] | activity at 10 µM (OVCAR-4) [%] | activity at 10 µM (RPMI-8226) [%] | activity at 10 µM (NCI/ADR-RES) [%] | activity at 10 µM (SK-MEL-2) [%] | activity at 10 µM (786-0) [%] | activity at 10 µM (UACC-62) [%] | activity at 10 µM (SNB-19) [%] | activity at 10 µM (SK-MEL-28) [%] | activity at 10 µM (ACHN) [%] | activity at 10 µM (SW-620) [%] | activity at 10 µM (HOP-62) [%] | activity at 10 µM (HS 578T) [%] | activity at 10 µM (TK-10) [%] | IC50 (CRAF) [µM] | percent inhibition (SK-MEL-5) [%] | also measured |
| --- | --- | --- | --- | --- | --- | --- | --- | --- | --- | --- | --- | --- | --- | --- | --- | --- | --- | --- | --- |
| O=S(=O)(NCCCNc1nccc(-n2cnc3ccccc32)n1)c1ccc(Cl)cc1 [12j, N-(3-((4-(1H-benzo [d]imidazol-1-yl)pyrimidin-2-yl)amino)propyl)-4-chloro benzenesulfonamide] | 92.5 | 82.8 | 76.2 | 83 | 78 | 98.2 | 108 | 103 | 81.5 | 104 | 108 | 94.1 | 110 | 101 | 105 | 104 | 1.02 ± 0.077 | – | – |
| O=S(=O)(NCCCNc1nccc(-n2cnc3ccccc32)n1)c1ccc(C(F)(F)F)cc1 [12l, N-(3-((4-(1H-benzo [d]imidazol-1-yl)pyrimidin-2-yl)amino)propyl)-4-(trifluoromethyl) benzenesulfonamide] | 59 | 66.9 | 29.9 | 53 | 55.6 | 55.8 | 91 | 77.2 | 64.1 | 83.4 | 103 | 79 | 99.5 | 77.3 | 58.6 | 81.5 | 0.84 ± 0.076 | 70 | – |
| O=S(=O)(NCCCNc1nccc(-n2cnc3ccccc32)n1)c1ccc(Br)cc1 [12k, N-(3-((4-(1H-benzo [d]imidazol-1-yl)pyrimidin-2-yl)amino)propyl)-4-bromo benzenesulfonamide] | 84.7 | 75.5 | 53.5 | 72.1 | 71.1 | 88.9 | 105 | 91.7 | 77.3 | 98.6 | 102 | 90.4 | 106 | 107 | 90 | 97.8 | 0.99 ± 0.085 | 40 | – |
| O=S(=O)(NCCNc1nccc(-n2cnc3ccccc32)n1)c1ccc(C(F)(F)F)cc1 [12e, N-(2-((4-(1H-benzo [d]imidazol-1-yl)pyrimidin-2-yl)amino)ethyl)-4-(trifluoromethyl)benzenesulfonamide] | 45.5 | 38.2 | 8.48 | 28.4 | 44.9 | 55.9 | 67.8 | 69.7 | 42.4 | 69.8 | 77.2 | 60.8 | 83.5 | 66.1 | 42.9 | 63.4 | 1.14 ± 0.088 | 91 | percent inhibition (PC-3; PC-3, NCI-60 heat map analysis): 55%; percent inhibition (OVCAR-4; OVCAR-4, NCI-60 heat map analysis): 71%; percent inhibition (RPMI-8226; RPMI-8226, NCI-60 heat map analysis): 55%; percent inhibition (NCI/ADR-RES; NCI-60 heat map analysis): 45% |
| O=S(=O)(NCCNc1nccc(-n2cnc3ccccc32)n1)c1ccc(Cl)cc1 [12c, N-(2-((4-(1H-benzo [d]imidazol-1-yl)pyrimidin-2-yl)amino)ethyl)-4-chlorobenzenesulfonamide] | 103 | 92.1 | 99.4 | 95.2 | 99.4 | 97.8 | 109 | 99 | 86.4 | 97.7 | 101 | 96.4 | 100 | 95.4 | 88.1 | 101 | 1.49 ± 0.23 | – | – |
